In patent US20260284100A1, “USE OF SULFATED GLUCO-GALACTOOLIGOSACCHARIDE IN PREPARATION OF DRUGS FOR TREATING ATOPIC DERMATITIS” (Nanjing University of Science and Technology, priority 2025, published 2026):

Experiments:
TSLP = experiment: qRT-PCR of TSLP mRNA in ear and dorsal skin of DNCB-induced AD mice; type: in vivo, mouse (female BALB/c); conditions: dorsal and ear skin tissues; 5 and 20 g/L topical, compared with DNCB group
Protocol: (§1) Female BALB/c mice (6-8 weeks old) provided by the Comparative Medicine Center of Yangzhou University were used in the experiment. All mice were housed under standard feeding conditions with a 12-hour light-dark cycle, and food and water were freely accessible to them. To establish the atopic dermatitis mouse model, the hair on the back of the mice was removed using a shaver and depilatory cream on Day 0 of the experiment. On Day 1 of the experiment, 100 μL of 20 g/L DNCB was applied to the back and 10 μL to the ear of each mouse to induce atopic dermatitis. On Day 5, 8 and 11 of the experiment, 100 μL of 5 g/L DNCB was applied to the back, 10 μL to the ear of each mouse every morning to challenge atopic dermatitis. The mice were euthanized 24 hours after the final challenge. […]
(§2) After all the mice were euthanized, an appropriate amount of ear and dorsal skin tissues was harvested. […] Real-time fluorescent quantitative PCR (qRT-PCR) was performed to specifically detect the expression of IL-1β, IL-4, IL-8 and TSLP.

[1] = Body weight in DNCB-induced AD mice; type: in vivo, mouse (female BALB/c); conditions: different-dose treatment groups (5 and 20 g/L topical); DNCB group decreased significantly
Protocol: as §1
(§3) The skin of the mice was photographed at the same time every day to record the skin condition, and the body weight of the mice was measured.

[2] = system: HaCaT cells stimulated by TNF-α/IFN-γ; experiment: mRNA expression of inflammatory cytokines in HaCaT cells stimulated by TNF-α/IFN-γ; type: cell-based, human; conditions: TNF-α/IFN-γ 10 ng/ml 18 h, then 100 or 200 μg/mL for 6 h
Protocol: HaCaT cells were used in the experiment, and their culture was carried out in high-glucose DMEM medium containing 10% fetal bovine serum, 1% streptomycin, and 1% erythromycin. The cells were incubated in a carbon dioxide incubator at 37° C. and passaged using trypsin digestion.
• 1) HaCaT cells were uniformly seeded in 6-well plates at a density of 5×10^5 cells per well. Control group and experimental groups were set up, namely the Ctrl group, TNF-α+IFN-γ group, LSRO+TNF-α+IFN-γ group and HSRO+TNF-α+IFN-γ group. • 2) TNF-α/IFN-γ (10 ng/ml) was added to the TNF-α+IFN-γ, LSRO+TNF-α+IFN-γ and HSRO+TNF-α+IFN-γ groups, respectively, while an equal volume of PBS solution (pH=7.2) was added to the Ctrl group. The plates were shaken crosswise to mix thoroughly, followed by incubation at 37° C. for 18 h in a carbon dioxide incubator. • 3) PBS, PBS, 100 μg/mL and 200 μg/mL sulfated gluco-galactooligosaccharide were added to the Ctrl, TNF-α+IFN-γ, LSRO+TNF-α+IFN-γ and HSRO+TNF-α+IFN-γ groups, respectively. The 6-well plates were placed in a carbon dioxide incubator at 37° C., and the cells were harvested after 6 h of incubation.
HaCaT cells were harvested, followed by RNA extraction and reverse transcription into cDNA. The expression levels of related genes such as IL-4, IL-6 and TNF-α were detected via fluorescent quantitative PCR. […]

IL-4 [3] = experiment: Determination of IL-4 in serum (ELISA) of DNCB-induced AD mice; type: in vivo, mouse (female BALB/c); conditions: DNCB group 253.5
Protocol: as §1
(§4) Before euthanasia, the mice were anesthetized, and blood samples were collected from the orbit. The blood samples of the mice in each group were analyzed using a fully automatic hematology analyzer. […] The levels of IgE and IL-4 were measured using a double-antibody sandwich enzyme-linked immunosorbent assay, according to the manufacturer's instructions.

DNCB-induced AD mice [4] = experiment: Weight of spleens and lymph nodes in DNCB-induced AD mice; type: in vivo, mouse (female BALB/c); conditions: for average weight of the lymph nodes: DNCB group 16.4; for average weight of the spleen: DNCB group 221
Protocol: (§5) Female BALB/c mice (6-8 weeks old) provided by the Comparative Medicine Center of Yangzhou University were used in the experiment. All mice were housed under standard feeding conditions with a 12-hour light-dark cycle, and food and water were freely accessible to them. To establish the atopic dermatitis mouse model, the hair on the back of the mice was removed using a shaver and depilatory cream on Day 0 of the experiment. On Day 1 of the experiment, 100 μL of 20 g/L DNCB was applied to the back and 10 μL to the ear of each mouse to induce atopic dermatitis. On Day 5, 8 and 11 of the experiment, 100 μL of 5 g/L DNCB was applied to the back, 10 μL to the ear of each mouse every morning to challenge atopic dermatitis. The mice were euthanized 24 hours after the final challenge.
(§6) 5 days after the establishment of the atopic dermatitis model, the mice were randomly divided into 4 groups (6 mice per group): a) normal control group (Ctrl group); b) model group (DNCB group), where 100 μL of normal saline was applied to the back and 10 μL to the ear of each mouse every day; c) low-dose group (DNCB+LSRO group), where 100 μL of 5 g/L aqueous solution of sulfated gluco-galactooligosaccharide was applied to the back of each mouse every day, and 10 μL of 5 g/L aqueous solution of sulfated gluco-galactooligosaccharide was applied to the ear of each mouse every day; and d) high-dose group (DNCB+HSRO group), where 100 μL of 20 g/L aqueous solution of sulfated gluco-galactooligosaccharide was applied to the back of each mouse every day, and 10 μL of 20 g/L aqueous solution of sulfated gluco-galactooligosaccharide was applied to the ear of each mouse every day. The skin condition of the mice was recorded daily.
After the mice were euthanized, the spleens and lymph nodes of the mice in each group were harvested and weighed.

DNCB-induced AD mice [5] = experiment: Scratching behavior test in DNCB-induced AD mice; type: in vivo, mouse (female BALB/c); conditions: DNCB group 107
Protocol: as §1
Prior to the start of the experiment, the mice were allowed to acclimatize to the cages for 1 hour to ensure they could relax and display normal behavioral patterns. During this period, the behavior of the mice scratching the skin of their neck, ears and back with their paws was closely observed and recorded.

DNCB-induced AD mice [6] = experiment: Skin histology, H&E staining, in DNCB-induced AD mice; type: in vivo, mouse (female BALB/c); conditions: treatment groups (5 and 20 g/L topical) compared with DNCB group
Protocol: as §1

IL-8 = experiment: qRT-PCR of IL-8 mRNA in ear and dorsal skin of DNCB-induced AD mice; type: in vivo, mouse (female BALB/c); conditions: dorsal and ear skin tissues; 5 and 20 g/L topical, compared with DNCB group
Protocol: as §1, §2

[7] = prior studies by the inventors (Carbohydrate Polymers 2025, 347:122782; CN 114533756 A); cited from earlier work
[8] = system: mast cells in skin tissues; experiment: Skin histology, toluidine blue (TBO) staining, mast cell number; type: in vivo, mouse (female BALB/c); conditions: dorsal skin, DNCB group 56
Protocol: as §1

DNCB-induced AD mice [9] = experiment: Dorsal skin inflammatory lesions (daily photographs) in DNCB-induced AD mice; type: in vivo, mouse (female BALB/c); conditions: treatment groups (5 and 20 g/L topical) compared with DNCB group
Protocol: as §1, §3

IL-1β = experiment: qRT-PCR of IL-1β mRNA in ear and dorsal skin of DNCB-induced AD mice; type: in vivo, mouse (female BALB/c); conditions: dorsal and ear skin tissues; 5 and 20 g/L topical, compared with DNCB group
Protocol: as §1, §2

IgE = experiment: Determination of IgE in serum (ELISA) of DNCB-induced AD mice; type: in vivo, mouse (female BALB/c); conditions: DNCB group 12.65
Protocol: as §1, §4

IL-4 [10] = experiment: qRT-PCR of IL-4 mRNA in ear and dorsal skin of DNCB-induced AD mice; type: in vivo, mouse (female BALB/c); conditions: dorsal and ear skin tissues; 5 and 20 g/L topical, compared with DNCB group
Protocol: as §1, §2

DNCB-induced AD mice [11] = experiment: Ear and dorsal skin thickness in DNCB-induced AD mice; type: in vivo, mouse (female BALB/c); conditions: for average ear skin thickness: DNCB group 0.44; for average dorsal skin thickness: DNCB group 785
Protocol: as §5, §6
The ear thickness was accurately measured every day using an electronic caliper. Before the mice were euthanized, the thickness of the dorsal skin was measured with a caliper. Three measurements were taken at different positions on the mid-back, near the neck, and near the tail, and the average value was taken as the final measurement result.

[12] = DNCB+HSRO group, 20 g/L topical daily
[13] = DNCB+LSRO group, 5 g/L topical daily

sulfated gluco-galactooligosaccharide
mRNA level of TSLP (TSLP): significantly decreased in a dose-dependent manner
DNCB-induced weight loss (body weight) [1]: not obvious
mRNA expression of inflammatory cytokines (IL-4, IL-6, TNF-α) [2]: significantly inhibit the elevation of inflammatory cytokines induced by TNF-α/IFN-γ
average level of IL-4 in serum (IL-4 [3]; [12]): 201 pg/mL
average level of IL-4 in serum (IL-4 [3]; [13]): 232 pg/mL
average weight of the lymph nodes (DNCB-induced AD mice [4]; [12]): 9.45 mg
average weight of the spleen (DNCB-induced AD mice [4]; [12]): 165 mg
average weight of the lymph nodes (DNCB-induced AD mice [4]; [13]): 10.3 mg
average weight of the spleen (DNCB-induced AD mice [4]; [13]): 183 mg
average scratching frequency (DNCB-induced AD mice [5]; DNCB+HSRO group, 20 g/L aqueous solution topical daily (100 μL back, 10 μL ear)): 58 times
average scratching frequency (DNCB-induced AD mice [5]; DNCB+LSRO group, 5 g/L aqueous solution topical daily (100 μL back, 10 μL ear)): 76 times
H&E staining of ear and dorsal skin (epidermal hyperplasia, hyperkeratosis, inflammatory cell infiltration) (DNCB-induced AD mice [6]): maintained the skin structure integrity, alleviated skin lesions and protected skin tissues from damage
mRNA level of IL-8 (IL-8): significantly decreased in a dose-dependent manner
anticoagulant activity [7]: has anticoagulant activity
average number of mast cells [8, 12]: 26
average number of mast cells [8, 13]: 32
dorsal skin inflammatory lesions (dryness, erythema, erosion, edema) (DNCB-induced AD mice [9]): effectively alleviated these symptoms
mRNA level of IL-1β (IL-1β): significantly decreased in a dose-dependent manner
average level of IgE in serum (IgE; [12]): 10.01 µg/mL
average level of IgE in serum (IgE; [13]): 10.45 µg/mL
mRNA level of IL-4 (IL-4 [10]): significantly decreased in a dose-dependent manner
average ear skin thickness (DNCB-induced AD mice [11]; [12]): 0.33 mm
average dorsal skin thickness (DNCB-induced AD mice [11]; [12]): 545 μm
average ear skin thickness (DNCB-induced AD mice [11]; [13]): 0.375 mm
average dorsal skin thickness (DNCB-induced AD mice [11]; [13]): 606 μm
